# Earlier results, collected in US4256737A, “Long acting depot injectable formulations for LH-RH analogues” (Syntex (U.S.A.) Inc., priority 1979, dated 1981).
# Details: background statement
substance,measurement,value
(pyro)Glu-His-Trp-Ser-Tyr-Gly-Leu-Arg-Pro-Gly-NH2 [natural LH-RH],biological halflife,1-2 hours
